In assay [1] the test system is Caki-1 cells. The experiment in a line: MTT cell viability, Caki-1 cells. Format: cell-based. Particulars: Homo sapiens, 48 h, read-out: dose at which cell viability declined by 50%. The procedure: (§1) MTT assays were performed to measure cell viability. Briefly, exponentially growing 786-O and Caki-1 cells were seeded in 96 well plates. After 24 h, cells were incubated with different doses of OPC31260 for 48 h. The cells were then incubated in MTT solution (5 mg/mL) for 2 h, following which the MTT solution was removed and the intracellular purple formazan was solubilized in DMSO and quantified by spectrophotometry at […].

For assay [2], the system named is 786-O cells. The experiment in a line: MTT cell viability, 786-O cells. The conditions noted are these: Homo sapiens, 786-0, 48 h, read-out: dose at which cell viability declined by 50%. Format: cell-based. The procedure:
as §1

Assay [3] deals with Caki-1 cells. Briefly: Caki-1 xenograft tumor growth in nude mice. Format: in vivo, Nu/Nu mice. The conditions noted are these: OPC31260 30 and 60 mg/Kg. As to the method:
Female Athymic Nude-Foxn1^nu mice (Nu/Nu mice), 7-8 weeks old and weighing ˜25 g were procured from Envigo/Harlan. All animal studies were carried out according to the protocols approved by the University of Kansas Medical Center Institutional Animal Care and Use Committee. Mice were subcutaneously injected on the right flank region with 1×10^6 Caki-1 cells in 100 μl of DMEM medium. […] Once the tumor volume reached ˜80-100 mm^3, mice were randomized into sub-groups based on the tumor volume. Animals were administered vehicle, OPC31260 (30 mg/Kg BWt.), OPC31260 (60 mg/Kg BWt) or dDAVP (1 μg/Kg BWt.) and vehicle (saline) by daily intraperitoneal injection, (60 mg/Kg BWt) or dDAVP (1 μg/Kg BWt.) and vehicle (saline) by daily intraperitoneal injection, or tolvaptan (120 mg/Kg BWt. in 1% aqueous solution of hydroxypropyl methylcellulose-dose derived from previous study^31) or vehicle by daily oral gavage for 28 days. Body weights and tumor volumes were measured every alternate day. At the end of the study, mice were injected with BRDU (100 mg/Kg BWt. by IP) 90 minutes before sacrifice. Tumors were harvested, photographed and weighed. Tumors were flash frozen or paraffin embedded for further analysis.

Assay [4] has as its system 786-O cells. The experiment in a line: Clonogenic assay, 786-O cells. The conditions noted are these: 48 h treatment, 10 days growth. Format: cell-based, human. The procedure:
786-O and Caki-1 cells were plated at very low density (1,000 cells/well) in six-well plates. After 16 h, cells were treated with different doses of OPC31260 and incubated for 48 h. Cells were washed and grown for 10 days until visible colonies formed. Colonies were fixed with 4% paraformaldehyde in PBS, stained with 0.25% crystal violet in 25% methanol, washed, air-dried and photographed. Crystal violet was dissolved in sodium citrate buffer (0.1M, 50% ethanol, pH 4.2) and absorbance was recorded at 590 nm.

In assay [5] the test system is 786-O cells. Briefly: Western blot of cell lysate, 786-O cells. Format: cell-based, human. Particulars: 24 h. An excerpt:
(§2) Tumors from mouse xenografts and cultured 786-O and Caki-1 cells were homogenized in SDS Laemmli buffer and loaded onto 10% SDS-polyacrylamide agarose gel electrophoresis gels, transferred to nitrocellulose membranes and blocked with 5% milk in TBST^32. Membranes were probed with primary antibody followed by wash and horseradish peroxidase secondary antibody application.

The subject of assay [6] is Caki-1 cells. Briefly: Western blot of cell lysate, Caki-1 cells. Format: cell-based, human. Particulars: 48 h.
Text: as §2
In general terms: A western blot detects proteins with antibodies after separation by electrophoresis.

Assay [7] relates to 786-O cells. The experiment in a line: Cell cycle analysis (propidium iodide, FACS), 786-O cells. Format: cell-based, human. The conditions noted are these: 24 h, 10 μM or higher doses. The procedure:
786-O and Caki-1 cells were incubated for 24 h with 0, 1, 5, 10, 25 or 50 μM of OPC31260, and stained with propidium iodide for analysis by flow cytometry. Cells were rinsed with PBS and trypsinized, and washed twice with PBS. Single-cell suspensions were fixed using pre-chilled 70% ethanol overnight, and subsequently permeabilized with PBS containing 0.1% Triton X-100, 1 mg/ml propidium iodide (Sigma-Aldrich) and 2 mg/ml DNase-free RNase at room temperature. Flow cytometry was done with a FACS Calibur analyzer (Becton Dickinson, Mountain, View, Calif.), capturing 10,000 events for each sample. Results were analyzed with ModFit LT™ software (Verity Software House, Topsham, Me.).

Assay [8] concerns pERK1/2, ERK1/2, pCREB, CREB, VEGF. The experiment in a line: Immunoblotting of xenograft tumor lysates. Format: in vivo, Nu/Nu mice. Particulars: tolvaptan 120 mg/Kg oral. The procedure:
Female Athymic Nude-Foxn1^nu mice (Nu/Nu mice), 7-8 weeks old and weighing ˜25 g were procured from Envigo/Harlan. All animal studies were carried out according to the protocols approved by the University of Kansas Medical Center Institutional Animal Care and Use Committee. Mice were subcutaneously injected on the right flank region with 1×10^6 Caki-1 cells in 100 μl of DMEM medium. One week after injection, palpable tumors appeared and tumor volume was measured with calipers following the formula, […]. Once the tumor volume reached ˜80-100 mm^3, mice were randomized into sub-groups based on the tumor volume. Animals were administered vehicle, OPC31260 (30 mg/Kg BWt.), OPC31260 (60 mg/Kg BWt) or dDAVP (1 μg/Kg BWt.) and vehicle (saline) by daily intraperitoneal injection, or tolvaptan (120 mg/Kg BWt. in 1% aqueous solution of hydroxypropyl methylcellulose-dose derived from previous study^31) or vehicle by daily oral gavage for 28 days. Body weights and tumor volumes were measured every alternate day. At the end of the study, mice were injected with BRDU (100 mg/Kg BWt. by IP) 90 minutes before sacrifice. Tumors were harvested, photographed and weighed. Tumors were flash frozen or paraffin embedded for further analysis.
as §2

The mark [9] stands for this setting: OPC31260 30/60 mg/kg IP, dDAVP 1 μg/Kg IP, 28 days.

Experimental findings from patent US11110098B2, “Methods and medicaments for the treatment of renal cell carcinoma” (University of Kansas, priority 2017, dated 2021) are described below.

On to `Cc1ccccc1C(=O)Nc1ccc(C(=O)N2CCCC(N(C)C)c3ccccc32)cc1` (centres unmarked) [OPC31260, 5-(dimethylamino)-1-[4-(2-methylbenzamido)benzoyl]-2,3,4,5-tetrahydro-1H-benzazepine], for which the IC50 with Caki-1 cells [1] lay within 5 to 10 µM. In addition, the IC50 in the assay with 786-O cells [2] fell in the range of 5 to 10 µM. Moreover, the tumor volume entry in the assay on Caki-1 cells [3] (daily intraperitoneal injections, 28 days) is “failed to show a significant increase”. For the same molecule, the “tumors at sacrifice versus vehicle (tumor weights, FIG. 2)” value in the assay with Caki-1 cells [3] (daily intraperitoneal, after 28 days) is recorded as “significantly smaller than in the vehicle treatment group”. In the assay on 786-O cells [4], the “dose from which a significant decline in colony formation was observed” value came to 5 µM. Moreover, in the assay on 786-O cells [5], the pCREB levels result is “dose-dependently reduced” and the pERK1/2 levels result is “dose-dependently reduced”. Further, in the assay with Caki-1 cells [6], the pCREB levels result is reported as “dose-dependently reduced” and the pERK1/2 levels entry is reported as “dose-dependently reduced”. Further, the “cells in G2/M phase” value in the assay with 786-O cells [7] is given as 60-70%. The “CREB levels in tumor lysates” value in assay [8] (OPC31260 30/60 mg/kg IP, 28 days) is “reduced”. For the same molecule, in assay [8] (setting [9]), the “pCREB levels in tumor lysates” value is “reduced” and the “pERK1/2 levels in tumor lysates” value was “reduced”. Besides, the “VEGF protein levels in tumors compared to vehicle” value in assay [8] (OPC31260 IP, dDAVP 1 μg/Kg IP, daily 28 days) is “significantly reduced”.
